Experimental data published in publication PMC9917830, “New Piperazine Derivatives of 6-Acetyl-7-hydroxy-4-methylcoumarin as 5-HT1A Receptor Agents” (International Journal of Molecular Sciences, 2023).
Like-named read-outs stand apart in the source and are kept apart here.

Legend:
5-HT1A receptor [1] = biological target: T1, 5-HT1A receptor (Rattus norvegicus, UniProt P19327); test: Competitive 5-HT1A binding assay with [3H]8-OH-DPAT, rat hippocampal membranes; conditions: 1 nM [3H]8-OH-DPAT
T1 construct: Brains were rapidly removed and placed on ice; from tissue; host or cells: Sprague–Dawley rat hippocampus membranes
T1 sequence (P19327 1-422): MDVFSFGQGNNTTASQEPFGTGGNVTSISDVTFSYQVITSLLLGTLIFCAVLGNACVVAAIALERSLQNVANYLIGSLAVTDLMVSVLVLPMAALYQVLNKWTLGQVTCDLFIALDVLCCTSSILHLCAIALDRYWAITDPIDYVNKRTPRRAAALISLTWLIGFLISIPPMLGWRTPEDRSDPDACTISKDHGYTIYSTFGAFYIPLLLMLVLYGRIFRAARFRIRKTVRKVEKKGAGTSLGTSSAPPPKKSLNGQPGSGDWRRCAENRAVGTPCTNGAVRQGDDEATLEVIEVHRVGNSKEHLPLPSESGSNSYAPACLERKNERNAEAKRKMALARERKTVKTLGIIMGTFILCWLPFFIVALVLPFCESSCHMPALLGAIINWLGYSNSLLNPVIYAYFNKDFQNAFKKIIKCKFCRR
Procedure: (§1) Sprague–Dawley rats were sacrificed by isoflurane overdose. Brains were rapidly removed and placed on ice. Hippocampi (for 5-HT1A assays) and frontal cortices (for 5-HT2A assays) were dissected on a Petri dish. The tissue from 10 rats was homogenized in 30 vol. homogenization buffer (50 mM Tris-HCl, […], 1 mM EDTA, 1 mM dithiothreitol) with a hand-held Teflon-glass homogenizer. The homogenate was centrifuged at 48,000× g at 4 °C for 15 min. The pellet was suspended and homogenized in homogenization buffer and incubated for 10 min at 36 °C. The centrifugation and suspension steps were repeated twice. The final pellet was homogenized in 5 vol. 50 mM Tris-HCl, pH = 7.4 buffer and stored at −80 °C for not more than 6 months.
(§2) Non-specific binding was determined with 10 μM serotonin in both assays. The final DMSO concentration in the assay was 5%. After incubation, the reaction mixture was deposited with the FilterMate-96 Harvester (Perkin Elmer, Waltham, MA, USA) onto Unifilter® GF/C plates (Perkin Elmer, Waltham, MA, USA) presoaked in 0.4% PEI for 1h. Each well was washed with 2 mL of 50 mM Tris-HCl (pH 7.4) buffer to separate bound ligands from free ones. Plates were left to dry overnight. Then, 35 µL of Microscint-20 scintillation fluid (Perkin Elmer, Waltham, MA, USA) was added to each filter well and left to equilibrate for 2 h. Filter-bound radioactivity was counted in a MicroBeta^2 LumiJet scintillation counter (Perkin Elmer, Waltham, MA, USA). Binding curves were fitted with one-site non-linear regression. Binding affinity (pKi ± SEM and Ki ± 95% confidence intervals) for each compound was calculated from […] values with the Cheng-Prusoff equation from two separate experiments.

5-HT1A receptor [2] = biological target: T1, 5-HT1A receptor; test: 5-HT1A receptor activation in the [35S]GTP-γ-S assay (agonist and antagonist mode); assay type: biochemical; conditions: for IC50: read-out: 5-HT1A Receptor Inhibition IC50 (nM, 95% CI); for Emax / EC50: agonist mode; for Emax: efficacy ± SEM; for EC50: rat hippocampal membranes; for agonist or antagonist properties at the 5-HT1A receptor: result in words
Procedure: as §1, with “The pellet was suspended and homogenized in homogenization buffer and incubated for 10 min at 36 °C.” left out
Non-specific binding was determined with 100 µM of unlabeled GTPγS. The compounds were tested in both the agonist and antagonist mode. […] The final DMSO concentration in the assay was 5%. The reaction mixture was incubated for 90 min at 30 °C on an orbital shaker set at 250 rpm. The reaction mixture was then deposited under vacuum with the FilterMate Harvester® (Perkin Elmer, Waltham, MA, USA) onto Unifilter® GF/C Plates (Perkin Elmer, Waltham, MA, USA) presoaked with wash buffer (50 mM Tris-HCl, pH = 7.4). The wells were then rapidly washed with 2 mL of wash buffer. The filter plates were dried overnight at room temperature. Once completely dry, 35 µL of MicroScint PS (Perkin Elmer, Waltham, MA, USA) scintillation fluid was added to each well. Radioactivity was counted in a MicroBeta^2 LumiJet scintillation counter (Perkin Elmer, Waltham, MA, USA). […] The curves were fitted with the three-parameter non-linear regression model.

5-HT2A receptor = biological target: T2, 5-HT2A receptor (Rattus norvegicus, UniProt P14842); test: Competitive 5-HT2A binding assay with [3H]ketanserin, rat frontal cortex membranes; conditions: 1 nM [3H]ketanserin
T2 construct: Brains were rapidly removed and placed on ice; from tissue; host or cells: Sprague–Dawley rat frontal cortex membranes
T2 sequence (P14842 whole entry): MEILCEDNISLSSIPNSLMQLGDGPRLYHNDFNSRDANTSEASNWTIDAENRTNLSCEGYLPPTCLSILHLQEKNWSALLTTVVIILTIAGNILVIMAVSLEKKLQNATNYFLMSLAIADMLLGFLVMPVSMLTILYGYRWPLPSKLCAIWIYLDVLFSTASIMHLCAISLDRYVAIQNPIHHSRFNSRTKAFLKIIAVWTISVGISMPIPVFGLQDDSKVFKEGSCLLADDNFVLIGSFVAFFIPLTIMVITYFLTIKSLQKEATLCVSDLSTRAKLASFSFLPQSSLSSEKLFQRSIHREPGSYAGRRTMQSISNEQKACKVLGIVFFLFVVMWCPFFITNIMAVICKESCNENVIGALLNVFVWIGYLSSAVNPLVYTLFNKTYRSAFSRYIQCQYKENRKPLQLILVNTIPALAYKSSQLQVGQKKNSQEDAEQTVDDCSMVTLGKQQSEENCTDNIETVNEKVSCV
Procedure: as §1, §2

[3] = 95% CI in brackets, read-out: 5-HT1A Affinity Ki (nM, 95% CI)
[4] = ± SEM, two experiments, read-out: 5-HT1A Affinity pKi (nM ± SEM) (converted)
[5] = 95% CI in brackets, read-out: 5-HT2A Affinity Ki (nM, 95% CI)
[6] = ± SEM, read-out: 5-HT2A Affinity pKi (converted)
[7] = 95% CI in brackets, read-out: 5-HT1A Receptor Stimulation EC50 (nM, 95% CI)

Row | SMILES | melting point [°C] | Ki (5-HT1A receptor [1]; [3]) [nM] | Ki (5-HT1A receptor [1]; [4]) [nM] | IC50 (5-HT1A receptor [2]) [nM] | Ki (5-HT2A receptor; [5]) [nM] | Ki (5-HT2A receptor; [6]) [nM] | Emax (5-HT1A receptor [2]) [%] | EC50 (5-HT1A receptor [2]; [7]) [nM] | EC50 (5-HT1A receptor [2]; read-out: 5-HT1A Receptor Stimulation pEC50 (nM ± SEM) (converted)) [nM] | agonist or antagonist properties at the 5-HT1A receptor (5-HT1A receptor [2])
1 | CC(=O)c1cc2c(C)cc(=O)oc2cc1OCCCCN1CCN(c2ccc([N+](=O)[O-])cc2)CC1 [Compound 12, 6-Acetyl-7-{4-[4-(4-nitrophenyl)piperazin-1-yl]butoxy}-4-methylchromen-2-one] | 138 to 139 | 1800 | 1780 | 53400 | 1500 | 1550 |  |  |  | 
2 | CC(=O)c1cc2c(C)cc(=O)oc2cc1OCCCCN1CCN(c2ccccc2F)CC1 [Compound 6, 6-Acetyl-7-{4-[4-(2-fluorophenyl)piperazin-1-yl]butoxy}-4-methylchromen-2-one] | 112 to 113 | 1.04 | 1.07 |  | 1470 |  | 139 ± 1.1 | 101 | 102 | 
3 | CC(=O)c1cc2c(C)cc(=O)oc2cc1OCCCCN1CCN(c2cc(C)ccc2C)CC1 [Compound 11, 6-Acetyl-7-{4-[4-(2,5-dimethylphenyl)piperazin-1-yl]butoxy}-4-methylchromen-2-one] | 130 to 131 | 174 |  | 21900 | 3710 | 3980 |  |  |  | 
4 | CC(=O)c1cc2c(C)cc(=O)oc2cc1OCCCCN1CCN(c2cnccn2)CC1 [Compound 15, 6-Acetyl-7-{4-[4-(pyrazin-2-yl)piperazin-1-yl]butoxy}-4-methylchromen-2-one] | 150 to 151 | 25 |  |  | 6600 |  | 170 ± 1.3 | 1300 |  | agonistic profile
5 | CC(=O)c1cc2c(C)cc(=O)oc2cc1OCCCCN1CCN(c2ccc(Br)cc2)CC1 [Compound 5, 6-Acetyl-7-{4-[4-(4-bromophenyl)piperazin-1-yl]butoxy}-4-methylchromen-2-one] | 145 to 146 | 1.4 |  | 63200 | 1350 |  |  |  |  | antagonistic properties
6 | COc1ccccc1N1CCN(CCCCOc2cc3oc(=O)cc(C)c3cc2C(C)=O)CC1 [Compound 1, 6-Acetyl-7-{4-[4-(2-methoxyphenyl)piperazin-1-yl]butoxy}-4-methylchromen-2-one] | 126 to 127 | 5.75 |  | 301 | 1420 |  |  |  |  | antagonistic properties
7 | CC(=O)c1cc2c(C)cc(=O)oc2cc1OCCCCN1CCN(c2cccc(Br)c2)CC1 [Compound 4, 6-Acetyl-7-{4-[4-(3-bromophenyl)piperazin-1-yl]butoxy}-4-methylchromen-2-one] | 109 to 110 | 0.78 | 0.759 |  | 1160 |  | 176 ± 1.2 | 113 |  | agonistic profile
8 | CC(=O)c1cc2c(C)cc(=O)oc2cc1OCCCCN1CCN(c2ccccc2C#N)CC1 [Compound 8, 6-Acetyl-7-{4-[4-(2-cyanophenyl)piperazin-1-yl]butoxy}-4-methylchromen-2-one] | 117 to 118 | 9.44 |  |  | 705 |  | 124 ± 1.1 | 59 |  | 
9 | CC(=O)c1cc2c(C)cc(=O)oc2cc1OCCCCN1CCN(c2ccccc2Cl)CC1 [Compound 7, 6-Acetyl-7-{4-[4-(2-chlorophenyl)piperazin-1-yl]butoxy}-4-methylchromen-2-one] | 132 to 133 | 0.57 | 0.55 |  | 2080 |  | 130 ± 1.4 | 49 |  | strongest agonist
10 | CC(=O)c1cc2c(C)cc(=O)oc2cc1OCCCCN1CCN(c2ccccc2Br)CC1 [Compound 3, 6-Acetyl-7-{4-[4-(2-bromophenyl)piperazin-1-yl]butoxy}-4-methylchromen-2-one] | 121 to 122 | 1.96 |  | 5180 | 1020 |  |  |  |  | antagonistic properties
11 | COc1cccc(N2CCN(CCCCOc3cc4oc(=O)cc(C)c4cc3C(C)=O)CC2)c1 [Compound 2, 6-Acetyl-7-{4-[4-(3-methoxyphenyl)piperazin-1-yl]butoxy}-4-methylchromen-2-one] |  | 12.9 |  |  | 1160 | 1170 | 146 ± 1.1 | 181 |  | agonistic activity
12 | CC(=O)c1cc2c(C)cc(=O)oc2cc1OCCCCN1CCN(c2cc(C)cc(C)c2)CC1 [Compound 10, 6-Acetyl-7-{4-[4-(3,5-dimethylphenyl)piperazin-1-yl]butoxy}-4-methylchromen-2-one] | 101 to 102 | 22.4 |  |  |  | 513 | 139 ± 1.4 | 475 |  | 
13 | CC(=O)c1cc2c(C)cc(=O)oc2cc1OCCCCN1CCN(c2cccc(Cl)c2Cl)CC1 [Compound 9, 6-Acetyl-7-{4-[4-(2,3-dichlorophenyl)piperazin-1-yl]butoxy}-4-methylchromen-2-one] | 111 to 112 | 6.3 |  |  | 1290 | 1230 | 133 ± 1.3 | 149 |  | 
14 | CC(=O)c1cc2c(C)cc(=O)oc2cc1OCCCCN1CCOCC1 [Compound 13, 6-Acetyl-7-[4-(morpholin-4-yl)butoxy]-4-methylchromen-2-one] | 115 to 116 | 9620 |  | 93400 | 6390 |  |  |  |  | 
15 | CC(=O)c1cc2c(C)cc(=O)oc2cc1OCCCCN1CCN(c2ccncc2)CC1 [Compound 14] | 107 to 108 | 1660 |  | 25000 | 3360 |  |  |  |  | 
